# Measured values as given in patent publication US20220338473A1, “USE OF BENZYL ALCOHOL AS A HERBICIDE” (INNOVI, priority 2019, published 2022).
# Assays:
# Carnation = assay: Systemic application through contact with the above-ground parts (half of plant treated); assay type: in vivo; conditions: potted, only one half sprayed, 4 g benzyl alcohol (200 L/Ha) in 4 g total (200 L/Ha)
# Description: (§1) Assays were carried out on different plants by treatment on a fraction of the above-ground parts.
# (§2) The assays were carried out on potted plants.
# (§3) The systemic action was evaluated on several types of plants by treatment on a fraction of its above-ground parts.
# (§4) The application of the product is carried out with a trigger spray bottle which makes it possible to spray 1 g of product per spraying, as microdroplets.
# (§5) The treated plants are sprinkled on only one half, with different quantities of water comprising different quantities of pure benzyl alcohol (PanReac AppliChem—ITW Reagents). The untreated (control) plants are sprinkled with the same total quantity, but of water only.
# (§6) The collapsing of the plant, the colour intensity and the diameter of the plant were measured as indicated in Example 1. The systemic effectiveness time was also measured in the following manner: • Systemic effectiveness time: 50% of the plant is initially treated with the product. The time necessary to see the first effects (systemically) appear on the part not treated (systemically) is determined.
# Grass [1] = assay: as above; assay type: in vivo; conditions: potted, only one half sprayed, 16 g benzyl alcohol (800 L/Ha) in 20 g total (1000 L/Ha)
# Description: as §1, §2, §3, §4, §5, §6
# Horned pansy [2] = assay: as above; assay type: in vivo; conditions: potted, only one half sprayed, 0.1 g benzyl alcohol (5 L/Ha) in 12 g total (600 L/Ha)
# Description: as §1, §2, §3, §4, §5, §6
# Hypoestes = assay: as above; assay type: in vivo; conditions: potted, only one half sprayed, 1 g benzyl alcohol (50 L/Ha) in 8 g total (400 L/Ha)
# Description: as §1, §2, §3, §4, §5, §6
# Osteospermum = assay: as above; assay type: in vivo; conditions: potted, only one half sprayed, 2 g benzyl alcohol (100 L/Ha) in 2 g total (100 L/Ha)
# Description: as §1, §2, §3, §4, §5, §6
# White petunia = assay: as above; assay type: in vivo; conditions: potted, only one half sprayed, 10 g benzyl alcohol (500 L/Ha) in 16 g total (800 L/Ha)
# Description: as §1, §2, §3, §4, §5, §6
# Horned pansy [3] = assay: Systemic action through contact with the underground parts (saucer, capillary uptake); assay type: in vivo; conditions: potted, saucer containing 40 g pure benzyl alcohol, uptake via roots
# Description: as §2
# Pure benzyl alcohol was used (PanReac AppliChem—ITW Reagents).
# Two potted plants (Horned pansy) were each placed in a saucer containing respectively 40 g pure benzyl alcohol or 40 g water (control). By capillary action, the liquids contained in the saucer are absorbed by the earth and come into contact with the roots.
# The systemic effectiveness time, the collapsing of the plant, the colour intensity and the diameter of the plant were measured as indicated in Examples 1 and 2.
# Grass [4] = assay: Non-selective activity on herbaceous plants (spraying, potted); assay type: in vivo, grass of the ryegrass type; conditions: 4 g benzyl alcohol (200 L/Ha) in 8 g total (400 L/Ha)
# Description: The non-selective character of benzyl alcohol was studied on 3 common varieties of herbaceous plants, two dicotyledons (dandelions and clover) and a monocotyledon (grass).
# The grass of the ryegrass type makes it possible to confirm that the spectrum of action of benzyl alcohol is broad.
# The assays were carried out on potted plants. The application of the product is carried out with a trigger spray bottle which makes it possible to spray 1 g of product per spraying, as microdroplets.
# The treated plants are sprinkled with different quantities of water comprising different quantities of pure benzyl alcohol (PanReac AppliChem—ITW Reagents). The untreated (control) plants are sprinkled with the same total quantity of water only.
# The plants are observed at the following times: T0, 6 h, 24 h, 48 h, 72 h, 96 h. The collapsing of the plant, the colour intensity and the diameter of the plant were measured as indicated in Example 1.
# Barley seeds = assay: Preventative activity (anti-germination), seeds on agar in Petri dish; assay type: in vivo; conditions: 0.35 g sprayed (benzyl alcohol pure, 700 L/Ha; glyphosate diluted at 0.5%)
# Description: (§7) The assays were carried out on seeds sown on a Petri dish with respectively a control mode, an assay with benzyl alcohol and an assay with glyphosate herbicide (Gallup® super 360, Barclay).
# (§8) The application of the product is carried out with a trigger spray bottle which makes it possible to spray 0.35 g of product per spraying, as microdroplets.
# (§9) Seeds are placed on an agar gel in Petri dishes. 16 barley seeds, 24 rapeseed seeds, 18 wheat seeds, 10 maize seeds, 10 soybean seeds are positioned for each test.
# (§10) The seeds are sprinkled either with 0.35 g water (equivalent 700 L/Ha) including 0.35 g pure benzyl alcohol (PanReac AppliChem—ITW Reagents) (equivalent 700 L/Ha pure benzyl alcohol), or with 0.35 g water for the control, or with 0.35 g glyphosate diluted at 0.5% for the glyphosate test.
# (§11) The plants are observed at 0 and 11 days. The percentage of germination is the percentage of germinated seeds evaluated after 11 days.
# Maize seeds = assay: as above; assay type: in vivo; conditions: 0.35 g sprayed (benzyl alcohol pure, 700 L/Ha; glyphosate diluted at 0.5%)
# Description: as §7, §8, §9, §10, §11
# Rapeseed seeds = assay: as above; assay type: in vivo; conditions: 0.35 g sprayed (benzyl alcohol pure, 700 L/Ha; glyphosate diluted at 0.5%)
# Description: as §7, §8, §9, §10, §11
# Soybean seeds = assay: as above; assay type: in vivo; conditions: 0.35 g sprayed (benzyl alcohol pure, 700 L/Ha; glyphosate diluted at 0.5%)
# Description: as §7, §8, §9, §10, §11
# Wheat seeds = assay: as above; assay type: in vivo; conditions: 0.35 g sprayed (benzyl alcohol pure, 700 L/Ha; glyphosate diluted at 0.5%)
# Description: as §7, §8, §9, §10, §11
# Dandelion seeds = assay: as above; assay type: in vivo; conditions: 0.35 g sprayed (benzyl alcohol pure, 700 L/Ha; glyphosate diluted at 0.5%)
compound,measurement,setting,value
OCc1ccccc1 [benzyl alcohol],A: systemic effectiveness time (whole plant affected),Carnation,at 72 h
same,B: collapsing (score and time): time to pass from score 5 (T0) to score 1,Carnation,86 h
same,C: colour intensity (score and time): time to pass from score 5 (T0) to score 1,Carnation,96 h
same,D: diameter (score and time): time to pass from score 5 (T0) to score 1,Carnation,120 h
same,A: systemic effectiveness time (whole plant affected),Grass [1],at 96 h
same,B: collapsing (score and time): time to pass from score 5 (T0) to score 1,Grass [1],144 h
same,C: colour intensity (score and time): time to pass from score 5 (T0) to score 1,Grass [1],120 h
same,D: diameter (score and time): time to pass from score 5 (T0) to score 1,Grass [1],168 h
same,A: systemic effectiveness time (whole plant affected),Horned pansy [2],at 120 h
same,B: collapsing (score and time): time to pass from score 5 (T0) to score 1,Horned pansy [2],168 h
same,C: colour intensity (score and time): time to pass from score 5 (T0) to score 1,Horned pansy [2],144 h
same,D: diameter (score and time): time to pass from score 5 (T0) to score 1,Horned pansy [2],168 h
same,A: systemic effectiveness time (whole plant affected),Hypoestes,at 96 h
same,B: collapsing (score and time): time to pass from score 5 (T0) to score 1,Hypoestes,120 h
same,C: colour intensity (score and time): time to pass from score 5 (T0) to score 1,Hypoestes,120 h
same,D: diameter (score and time): time to pass from score 5 (T0) to score 1,Hypoestes,144 h
same,A: systemic effectiveness time (whole plant affected),Osteospermum,at 96 h
same,B: collapsing (score and time): time to pass from score 5 (T0) to score 1,Osteospermum,144 h
same,C: colour intensity (score and time): time to pass from score 5 (T0) to score 1,Osteospermum,120 h
same,D: diameter (score and time): time to pass from score 5 (T0) to score 1,Osteospermum,144 h
same,A: systemic effectiveness time (whole plant affected),White petunia,at 24 h
same,B: collapsing (score and time): time to pass from score 5 (T0) to score 1,White petunia,48 h
same,C: colour intensity (score and time): time to pass from score 5 (T0) to score 1,White petunia,48 h
same,D: diameter (score and time): time to pass from score 5 (T0) to score 1,White petunia,48 h
same,Collapsing: time to pass from a score of 5 to a score of 1,Horned pansy [3],72 h
same,Colour intensity: time to pass from a score of 5 to a score of 1,Horned pansy [3],48 h
same,Diameter of the plant: time to pass from a score of 5 to a score of 1,Horned pansy [3],96 h
same,Systemic effectiveness time: the whole plant is affected,Horned pansy [3],48 h
same,Collapsing (score and time): time to pass from score 5 (T0) to score 1,Grass [4],1 to 48 h
same,Colour intensity (score and time): time to pass from score 5 (T0) to score 1,Grass [4],1 to 24 h
same,Diameter (score and time): time to pass from score 5 (T0) to score 1,Grass [4],1 to 48 h
same,Percentage of germination at 11 days,Barley seeds,0%
same,Percentage of germination at 11 days,Maize seeds,0%
same,Percentage of germination at 11 days,Rapeseed seeds,0%
same,Percentage of germination at 11 days,Soybean seeds,0%
same,Percentage of germination at 11 days,Wheat seeds,0%
same,Percentage of germination at 11 days,Dandelion seeds,0%
